#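 Values below derive from 48-hour exposures of cells grown in 96-well plates, with endpoints linearly interpolated between the two concentrations bracketing the appropriate inhibition level. Abbreviation: GI50, concentration required for 50% inhibition of growth. At the TGI there is no net growth.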
# How the values were obtained:
# Test in all cases: DTP human tumour cell line panel, 48 h
# [1] = test system: OVCAR-3 ovarian
# [2] = test system: MDA-MB-435
# [3] = test system: OVCAR-4 ovarian
# [4] = test system: SF-268 CNS
# [5] = test system: NCI/ADR-RES ovarian
# [6] = test system: SK-MEL-5 melanoma
# [7] = test system: UACC-62 melanoma
# [8] = test system: SK-MEL-28 melanoma
# [9] = test system: OVCAR-8 ovarian
# [10] = test system: HL-60(TB) leukemia
# [11] = test system: T-47D breast
# [12] = test system: OVCAR-5 ovarian
# [13] = test system: MOLT-4 leukemia
# [14] = test system: UACC-257 melanoma
# [15] = test system: EKVX NSCLC
# [16] = test system: NCI-H522 lung
# [17] = test system: HCT-116 colon
# [18] = test system: SN12C renal
# [19] = test system: 786-0 renal
# [20] = test system: MALME-3M melanoma
# [21] = test system: HCC-2998 colon
# [22] = test system: KM12 colon
# [23] = test system: A498 renal
# [24] = test system: HOP-62 NSCLC
# [25] = test system: COLO 205 colon
# [26] = test system: SK-OV-3 ovarian
# [27] = test system: MCF7 breast
# [28] = test system: HS 578T breast
# [29] = test system: SW-620 colon
# [30] = test system: SK-MEL-2 melanoma
# [31] = test system: NCI-H226 lung
# [32] = test system: SF-539 CNS
# [33] = test system: PC-3 prostate
# [34] = test system: HCT-15 colon
# [35] = test system: LOX IMVI melanoma
# [36] = test system: SNB-75 CNS
# [37] = test system: SF-295 CNS
# [38] = test system: RXF 393 renal
# [39] = test system: NCI-H460 lung
# [40] = test system: HOP-92 NSCLC
# [41] = test system: SNB-19 CNS
# [42] = test system: IGROV1 ovarian
# [43] = test system: BT-549 breast
# [44] = test system: M14 melanoma
# [45] = test system: UO-31 renal
# [46] = test system: K-562 leukemia
# [47] = test system: HT29 colon
# [48] = test system: U251 CNS
# [49] = test system: RPMI-8226 leukemia
# [50] = test system: SR leukemia
# [51] = test system: ACHN renal
# [52] = test system: NCI-H23 lung
# [53] = test system: MDA-MB-231 breast
# [54] = test system: TK-10 renal
# [55] = test system: A549 NSCLC
# [56] = test system: CCRF-CEM leukemia
structure (smiles),measurement,setting,value
CC(C)C[C@H]1C(=O)O[C@H](C(C)C)C(=O)N(C)[C@@H](C(C)C)C(=O)O[C@H](C(C)C)C(=O)N(C)[C@@H](C(C)C)C(=O)O[C@H](C(C)C)C(=O)N1C,GI50,[1],2.4 µM
same,TGI,[1],> 10 µM
same,GI50,[2],3.46 µM
same,TGI,[2],> 10 µM
same,GI50,[3],2.37 µM
same,TGI,[3],> 10 µM
same,GI50,[4],3.71 µM
same,TGI,[4],> 10 µM
same,GI50,[5],2.9 µM
same,TGI,[5],> 10 µM
same,GI50,[6],1.87 µM
same,TGI,[6],4.05 µM
same,GI50,[7],3.47 µM
same,TGI,[7],> 10 µM
same,GI50,[8],4.23 µM
same,TGI,[8],> 10 µM
same,GI50,[9],3.17 µM
same,TGI,[9],> 10 µM
same,GI50,[10],2.32 µM
same,TGI,[10],5.23 µM
same,GI50,[11],2.65 µM
same,TGI,[11],8.43 µM
same,GI50,[12],2.88 µM
same,TGI,[12],> 10 µM
same,GI50,[13],3.27 µM
same,TGI,[13],> 10 µM
same,GI50,[14],2.62 µM
same,TGI,[14],8.49 µM
same,GI50,[15],3.1 µM
same,TGI,[15],> 10 µM
same,GI50,[16],2.61 µM
same,TGI,[16],> 10 µM
same,GI50,[17],3.18 µM
same,TGI,[17],> 10 µM
same,GI50,[18],3.09 µM
same,TGI,[18],> 10 µM
same,GI50,[19],3.71 µM
same,TGI,[19],> 10 µM
same,GI50,[20],2.06 µM
same,TGI,[20],8.67 µM
same,GI50,[21],3.9 µM
same,TGI,[21],> 10 µM
same,GI50,[22],3.25 µM
same,TGI,[22],> 10 µM
same,GI50,[23],1.72 µM
same,TGI,[23],6.4 µM
same,GI50,[24],2.82 µM
same,TGI,[24],> 10 µM
same,GI50,[25],1.64 µM
same,TGI,[25],3.29 µM
same,GI50,[26],2.21 µM
same,TGI,[26],6.05 µM
same,GI50,[27],2.82 µM
same,TGI,[27],> 10 µM
same,GI50,[28],4.1 µM
same,TGI,[28],> 10 µM
same,GI50,[29],3.38 µM
same,TGI,[29],> 10 µM
same,GI50,[30],3.04 µM
same,TGI,[30],> 10 µM
same,GI50,[31],4.01 µM
same,TGI,[31],> 10 µM
same,GI50,[32],3.2 µM
same,TGI,[32],> 10 µM
same,GI50,[33],3.15 µM
same,TGI,[33],> 10 µM
same,GI50,[34],3.05 µM
same,TGI,[34],> 10 µM
same,GI50,[35],3.19 µM
same,TGI,[35],> 10 µM
same,GI50,[36],2.25 µM
same,TGI,[36],> 10 µM
same,GI50,[37],2.72 µM
same,TGI,[37],> 10 µM
same,GI50,[38],3.33 µM
same,TGI,[38],> 10 µM
same,GI50,[39],3.14 µM
same,TGI,[39],> 10 µM
same,GI50,[40],1.7 µM
same,TGI,[40],5.51 µM
same,GI50,[41],3.4 µM
same,TGI,[41],> 10 µM
same,GI50,[42],4.46 µM
same,TGI,[42],> 10 µM
same,GI50,[43],3.43 µM
same,TGI,[43],> 10 µM
same,GI50,[44],3.65 µM
same,TGI,[44],> 10 µM
same,GI50,[45],1.81 µM
same,TGI,[45],7.69 µM
same,GI50,[46],3.7 µM
same,TGI,[46],> 10 µM
same,GI50,[47],3.4 µM
same,TGI,[47],> 10 µM
same,GI50,[48],3.51 µM
same,TGI,[48],> 10 µM
same,GI50,[49],1.53 µM
same,TGI,[49],5.56 µM
same,GI50,[50],3.65 µM
same,TGI,[50],> 10 µM
same,GI50,[51],2.6 µM
same,TGI,[51],8.83 µM
same,GI50,[52],3.19 µM
same,TGI,[52],> 10 µM
same,GI50,[53],2.65 µM
same,TGI,[53],8.22 µM
same,GI50,[54],3.27 µM
same,TGI,[54],> 10 µM
same,GI50,[55],3.44 µM
same,TGI,[55],> 10 µM
same,GI50,[56],3.5 µM
same,TGI,[56],> 10 µM
